Data: BigSolDB 2.1

CN1CCN(c2c(F)cc3c(=O)c(C(=O)O)cn4c3c2OCN4C)CC1
solubility (mole fraction)
Details | 283.15 K | 288.15 K | 293.15 K | 298.15 K | 303.15 K | 308.15 K | 313.15 K | 318.15 K | 323.15 K | 328.15 K
in 1,4-dioxane | – | 0.000114 | 0.000132 | 0.000153 | 0.000188 | 0.00023 | 0.00028 | 0.000348 | 0.000427 | 0.000512
in THF | – | 0.000432 | 0.000508 | 0.000591 | 0.00068 | 0.000777 | 0.000887 | 0.001 | 0.00113 | 0.00125
in acetone | 0.000219 | 0.000266 | 0.000316 | 0.000367 | 0.000425 | 0.000488 | 0.00057 | 0.000678 | 0.000796 | –
in acetonitrile | 0.000122 | 0.000147 | 0.000172 | 0.000213 | 0.00025 | 0.000298 | 0.000345 | 0.000422 | 0.000509 | –
in ethanol | 6.66e-05 | 7.84e-05 | 9.47e-05 | 0.000117 | 0.000144 | 0.000175 | 0.000217 | 0.000264 | 0.000326 | –
in ethyl acetate | 0.000154 | 0.000172 | 0.000197 | 0.000226 | 0.000255 | 0.000288 | 0.000326 | 0.000378 | 0.000432 | –
in isopropanol | 5.13e-05 | 6.16e-05 | 7.5e-05 | 9.22e-05 | 0.000107 | 0.00013 | 0.000164 | 0.000204 | 0.000259 | –
in methanol | 0.000127 | 0.000147 | 0.000173 | 0.000204 | 0.000249 | 0.000295 | 0.000354 | 0.000435 | 0.000521 | –
in n-butanol | 8.77e-05 | 0.0001 | 0.000116 | 0.00014 | 0.000169 | 0.000204 | 0.000254 | 0.000316 | 0.000408 | –
in n-propanol | 8.29e-05 | 9.58e-05 | 0.000114 | 0.000136 | 0.000164 | 0.000202 | 0.000253 | 0.000315 | 0.000391 | –
in tert-amyl alcohol | 7.86e-05 | 9.12e-05 | 0.000107 | 0.000122 | 0.00014 | 0.00017 | 0.000202 | 0.00024 | 0.00029 | –
in toluene | 4.91e-05 | 6.13e-05 | 7.24e-05 | 8.74e-05 | 0.000102 | 0.000117 | 0.000135 | 0.000155 | 0.00018 | –
